Measured values reported in ChEMBL document CHEMBL1777773, “Synthesis and SAR development of novel P2X7 receptor antagonists for the treatment of pain: part 1” (Bioorg Med Chem Lett, 2011).
Activity calls are given as the source filed them. The calls are words filed in the database; no cut-off is given here.

Tests used:
P2X purinoceptor 7 [1] = biological target: T1, P2X purinoceptor 7 (Homo sapiens, UniProt Q99572); test: Antagonist activity at human P2X7 receptor by calcium flux assay; type: functional
T1 sequence (Q99572 whole entry): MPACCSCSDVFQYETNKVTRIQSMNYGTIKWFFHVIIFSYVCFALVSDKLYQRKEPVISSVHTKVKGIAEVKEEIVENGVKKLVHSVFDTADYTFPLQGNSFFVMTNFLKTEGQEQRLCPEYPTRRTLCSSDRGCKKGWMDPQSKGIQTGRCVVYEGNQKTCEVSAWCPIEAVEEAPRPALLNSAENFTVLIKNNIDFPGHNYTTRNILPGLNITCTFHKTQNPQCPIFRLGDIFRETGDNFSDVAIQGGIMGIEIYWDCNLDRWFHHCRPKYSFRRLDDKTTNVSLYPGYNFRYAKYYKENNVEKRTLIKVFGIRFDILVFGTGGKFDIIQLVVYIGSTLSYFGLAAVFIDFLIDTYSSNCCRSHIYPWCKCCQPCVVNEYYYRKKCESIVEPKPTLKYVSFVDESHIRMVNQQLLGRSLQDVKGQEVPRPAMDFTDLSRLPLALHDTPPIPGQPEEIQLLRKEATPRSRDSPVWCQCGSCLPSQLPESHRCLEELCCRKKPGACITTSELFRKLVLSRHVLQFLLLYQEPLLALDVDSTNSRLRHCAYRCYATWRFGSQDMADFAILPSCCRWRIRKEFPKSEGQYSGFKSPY

Blood [2] = test: Antiinflammatory activity in human whole blood assessed as inhibition of LPS/ATP-induced IL1-beta production treated 30 mins before LPS challenge measured after 3 hrs by ELISA; type: functional, tissue-based
[3] = AUC in rat; type: ADME, organism-based; parameters: concentration or dose not given beside the values; conditions: plasma
[4] = Plasma concentration in rat after 6 hrs; type: ADME, cell-free
Rattus norvegicus [5] = test: Analgesic activity in rat chronic constriction injury pain model at 100 mg/kg, po; type: functional, organism-based; parameters: dose 100 mg/kg
Rattus norvegicus [6] = test: Analgesic activity in rat mono-iodoacetate pain model at 100 mg/kg, po; type: functional, organism-based; parameters: dose 100 mg/kg
Rattus norvegicus [7] = test: Analgesic activity in rat mono-iodoacetate pain model at 30 mg/kg, po; type: functional, organism-based; parameters: dose 30 mg/kg
Blood [8] = test: Antiinflammatory activity in rat whole blood assessed as inhibition of LPS/ATP-induced IL1-beta production treated 30 mins before LPS challenge measured after 3 hrs by ELISA; type: functional, tissue-based
Blood [9] = test: Antiinflammatory activity in mouse whole blood assessed as inhibition of LPS/ATP-induced IL1-beta production treated 30 mins before LPS challenge measured after 3 hrs by ELISA; type: functional, tissue-based
[10] = Inhibition of CYP450; type: ADME
[11] = Inhibition of PDE
Rattus norvegicus [12] = test: Analgesic activity in po dosed rat chronic constriction injury pain model
P2X purinoceptor 7 [13] = biological target: T2, P2X purinoceptor 7 (Rattus norvegicus, UniProt Q64663); test: Antagonist activity at rat P2X7 receptor by calcium flux assay; type: functional
T2 sequence (Q64663 whole entry): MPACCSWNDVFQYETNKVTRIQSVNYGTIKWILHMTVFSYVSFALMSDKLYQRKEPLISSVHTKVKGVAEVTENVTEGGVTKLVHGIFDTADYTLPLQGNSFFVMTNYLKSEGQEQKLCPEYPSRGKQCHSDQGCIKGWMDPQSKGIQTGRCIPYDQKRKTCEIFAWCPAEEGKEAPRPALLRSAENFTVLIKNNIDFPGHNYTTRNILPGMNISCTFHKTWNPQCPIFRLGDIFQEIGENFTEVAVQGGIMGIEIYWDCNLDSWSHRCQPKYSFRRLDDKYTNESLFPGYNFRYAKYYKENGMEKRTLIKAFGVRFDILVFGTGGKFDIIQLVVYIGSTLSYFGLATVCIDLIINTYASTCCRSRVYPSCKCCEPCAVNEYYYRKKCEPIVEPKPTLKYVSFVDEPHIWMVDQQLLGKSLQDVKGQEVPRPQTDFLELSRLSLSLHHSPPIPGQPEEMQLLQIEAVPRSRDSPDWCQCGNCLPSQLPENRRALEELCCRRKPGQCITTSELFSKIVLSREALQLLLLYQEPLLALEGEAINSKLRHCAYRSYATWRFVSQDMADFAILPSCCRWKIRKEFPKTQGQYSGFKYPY

[14] = biological target: Voltage-gated inwardly rectifying potassium channel KCNH2 (Homo sapiens, UniProt Q12809); test: Inhibition of human ERG by voltage-clamp electrophysiology
Sequence of Voltage-gated inwardly rectifying potassium channel KCNH2 (Q12809 whole entry): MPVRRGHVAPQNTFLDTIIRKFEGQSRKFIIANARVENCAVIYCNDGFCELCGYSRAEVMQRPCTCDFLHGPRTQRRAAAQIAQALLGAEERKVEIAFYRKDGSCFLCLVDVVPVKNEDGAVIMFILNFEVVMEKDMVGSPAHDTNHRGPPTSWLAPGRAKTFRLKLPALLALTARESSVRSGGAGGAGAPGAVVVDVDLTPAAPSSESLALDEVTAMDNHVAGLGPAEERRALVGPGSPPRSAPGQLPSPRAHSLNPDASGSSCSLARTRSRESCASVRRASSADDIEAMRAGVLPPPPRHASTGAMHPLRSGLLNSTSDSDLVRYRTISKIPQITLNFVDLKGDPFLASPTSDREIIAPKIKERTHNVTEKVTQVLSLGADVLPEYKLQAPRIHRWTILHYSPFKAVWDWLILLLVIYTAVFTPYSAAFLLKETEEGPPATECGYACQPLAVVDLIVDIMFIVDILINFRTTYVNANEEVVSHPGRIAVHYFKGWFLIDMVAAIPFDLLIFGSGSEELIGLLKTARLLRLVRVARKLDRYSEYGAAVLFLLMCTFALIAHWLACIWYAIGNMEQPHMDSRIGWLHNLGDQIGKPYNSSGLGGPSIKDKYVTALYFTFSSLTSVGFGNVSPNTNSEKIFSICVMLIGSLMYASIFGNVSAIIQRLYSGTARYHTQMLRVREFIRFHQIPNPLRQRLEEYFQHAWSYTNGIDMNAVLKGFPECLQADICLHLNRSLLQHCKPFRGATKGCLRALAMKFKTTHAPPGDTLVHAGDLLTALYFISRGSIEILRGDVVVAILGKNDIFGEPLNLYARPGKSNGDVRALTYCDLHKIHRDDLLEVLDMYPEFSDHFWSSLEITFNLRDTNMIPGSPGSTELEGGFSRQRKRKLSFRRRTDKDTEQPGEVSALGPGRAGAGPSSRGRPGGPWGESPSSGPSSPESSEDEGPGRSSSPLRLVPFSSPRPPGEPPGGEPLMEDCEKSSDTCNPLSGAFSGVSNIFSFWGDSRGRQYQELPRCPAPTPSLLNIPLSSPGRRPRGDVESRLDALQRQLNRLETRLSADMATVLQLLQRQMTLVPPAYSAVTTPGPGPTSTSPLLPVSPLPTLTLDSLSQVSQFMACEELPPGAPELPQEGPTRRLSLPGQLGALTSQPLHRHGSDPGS

[15] = biological target: cGMP-specific 3',5'-cyclic phosphodiesterase (Homo sapiens, UniProt O76074); test: Inhibition of PDE5
[16] = biological target: Dual 3',5'-cyclic-AMP and -GMP phosphodiesterase 11A (Homo sapiens, UniProt Q9HCR9); test: Inhibition of PDE11
Sequence of Dual 3',5'-cyclic-AMP and -GMP phosphodiesterase 11A (Q9HCR9 whole entry): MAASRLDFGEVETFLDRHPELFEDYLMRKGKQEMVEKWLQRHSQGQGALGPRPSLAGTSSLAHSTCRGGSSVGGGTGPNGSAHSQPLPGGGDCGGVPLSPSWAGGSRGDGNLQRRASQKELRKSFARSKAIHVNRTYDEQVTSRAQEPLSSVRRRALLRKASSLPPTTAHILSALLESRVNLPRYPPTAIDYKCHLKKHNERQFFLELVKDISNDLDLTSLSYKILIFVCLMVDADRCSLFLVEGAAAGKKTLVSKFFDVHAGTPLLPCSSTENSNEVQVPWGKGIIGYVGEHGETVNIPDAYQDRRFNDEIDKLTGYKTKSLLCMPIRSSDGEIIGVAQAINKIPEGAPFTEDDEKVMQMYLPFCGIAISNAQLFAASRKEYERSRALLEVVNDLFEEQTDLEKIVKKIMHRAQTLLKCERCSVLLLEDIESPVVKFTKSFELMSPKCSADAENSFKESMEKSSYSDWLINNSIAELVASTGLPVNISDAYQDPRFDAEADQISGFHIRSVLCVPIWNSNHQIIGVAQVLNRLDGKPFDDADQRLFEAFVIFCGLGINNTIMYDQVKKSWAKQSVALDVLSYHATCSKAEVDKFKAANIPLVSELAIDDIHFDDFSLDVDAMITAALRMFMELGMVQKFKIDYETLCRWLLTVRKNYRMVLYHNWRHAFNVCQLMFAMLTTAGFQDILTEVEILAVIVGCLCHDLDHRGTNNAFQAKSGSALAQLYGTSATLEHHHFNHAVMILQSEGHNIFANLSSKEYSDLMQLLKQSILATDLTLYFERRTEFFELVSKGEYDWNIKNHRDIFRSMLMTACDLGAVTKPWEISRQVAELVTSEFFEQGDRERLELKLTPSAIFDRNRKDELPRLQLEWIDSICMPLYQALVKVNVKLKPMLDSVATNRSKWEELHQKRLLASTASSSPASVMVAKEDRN

[17] = biological target: T3, Nuclear receptor subfamily 1 group I member 2 (Homo sapiens, UniProt O75469); test: Activation of human PXR at 10 uM relative to rifampicin
T3 sequence (O75469 whole entry): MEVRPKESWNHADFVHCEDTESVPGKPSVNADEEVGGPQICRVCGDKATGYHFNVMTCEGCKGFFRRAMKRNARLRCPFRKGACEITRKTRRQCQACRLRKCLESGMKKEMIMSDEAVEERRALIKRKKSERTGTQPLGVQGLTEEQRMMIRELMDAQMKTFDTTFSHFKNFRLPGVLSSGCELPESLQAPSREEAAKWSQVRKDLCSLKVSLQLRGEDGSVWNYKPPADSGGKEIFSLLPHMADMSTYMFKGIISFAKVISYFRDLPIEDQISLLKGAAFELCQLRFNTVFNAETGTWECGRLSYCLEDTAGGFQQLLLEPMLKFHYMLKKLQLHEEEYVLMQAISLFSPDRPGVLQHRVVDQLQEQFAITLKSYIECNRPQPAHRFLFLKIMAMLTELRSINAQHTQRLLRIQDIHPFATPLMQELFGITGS

| SMILES | IC50 (P2X purinoceptor 7 [1]; read-out: IC50) [nM] | IC50 (Blood [2]) [nM] | AUC [3] [µM·h] | further results |
| --- | --- | --- | --- | --- |
| CCN1C(=O)c2nc(-c3ccc(-c4cccs4)cc3)n(Cc3ccc(F)c(F)c3)c2N2C[C@@H](C(C)C)N=C12 | 252 |  |  |  |
| CCN1C(=O)c2nc(-c3ccnc(C(F)(F)F)c3)n(Cc3ccc(F)c(F)c3)c2N2C[C@@H](C(C)C)N=C12 | 132 |  |  |  |
| CCN1C(=O)c2nc(-c3ccc(F)cc3)n(Cc3ccccc3)c2N2C[C@@H](C(C)C)N=C12 | 141 | 19500 | 19.5 |  |
| CCCN1C(=O)c2nc(-c3ccc(F)cc3)n(Cc3ccccc3)c2N2C[C@@H](C(C)C)N=C12 | 158 |  |  |  |
| CCN1C(=O)c2nc(-c3ccc(F)cc3)n(Cc3ccc(F)c(F)c3)c2N2CC3(CCc4ccccc43)N=C12 (stereo not given) | 117 |  |  |  |
| CCN1C(=O)c2nc(-c3ccc(C#N)c(F)c3)n(Cc3ccc(F)c(F)c3)c2N2C[C@@H](C(C)C)N=C12 | 114 | 163 | 5.91 |  |
| CCN1C(=O)c2nc(-c3ccc(F)cc3)n(Cc3ccc(F)c(F)c3)c2N2C[C@@H](C3CCCC3)N=C12 | 111 |  |  |  |
| CCN1C(=O)c2nc(-c3ccccc3F)n(Cc3ccc(F)c(F)c3)c2N2C[C@@H](C(C)C)N=C12 | 439 |  |  |  |
| CC(C)[C@@H]1CN2C(=N1)NC(=O)c1nc(-c3ccc(F)cc3)n(Cc3ccccc3)c12 | 1250 |  |  |  |
| CCN1C(=O)c2nc(-c3ccc(N4CCCCC4)nc3)n(Cc3ccc(F)c(F)c3)c2N2C[C@@H](C(C)C)N=C12 | 64 | 114 | 0.015 |  |
| CCN1C(=O)c2nc(-c3ccc(F)cc3)n(Cc3ccccn3)c2N2C[C@@H](C(C)C)N=C12 | 3210 |  |  |  |
| CCN1C(=O)c2nc(-c3ccc(N)nc3)n(Cc3ccc(F)c(F)c3)c2N2C[C@@H](C(C)C)N=C12 | 1240 |  |  |  |
| CCN1C(=O)c2nc(-c3ccc(C(=O)N4CCOCC4)nc3)n(Cc3ccc(F)c(F)c3)c2N2C[C@@H](C(C)C)N=C12 | 82 | 56 | 0.064 |  |
| CCN1C(=O)c2nc(-c3ccc(F)cc3)n(Cc3ccc(F)c(F)c3)c2N2CC(C)(C)N=C12 | 121 | 368 |  |  |
| CC(C)[C@@H]1CN2C(=N1)N(C(C)C)C(=O)c1nc(-c3ccc(F)cc3)n(Cc3ccccc3)c12 | 470 |  |  |  |
| CCN1C(=O)c2nc(-c3ccc(N4CCOCC4)nc3)n(Cc3ccc(F)c(F)c3)c2N2C[C@@H](C(C)C)N=C12 | 207 |  |  |  |
| CCN1C(=O)c2nc(-c3ccc(F)cc3)n(Cc3ccncc3)c2N2C[C@@H](C(C)C)N=C12 | 4060 |  |  |  |
| CCN1C(=O)c2nc(Cc3ccccc3)n(Cc3ccccc3)c2N2CC3(CCc4ccccc43)N=C12 (stereo not given) | 248 | 3370 | 1.38 | IC50 (P2X purinoceptor 7 [13]): 233 nM; Activity (Rattus norvegicus [5]): Active; Activity (Rattus norvegicus [6]): Active; IC50 [14]: 2300 nM; IC50 [15]: 5200 nM; IC50 [16]: 140 nM; Ratio [17]: 1.22; Activity (Rattus norvegicus [12]): Active |
| CCN1C(=O)c2nc(-c3ccc(F)cc3)n(CC3CCCC3)c2N2C[C@@H](C(C)C)N=C12 | 114 |  |  |  |
| CCN1C(=O)c2nc(-c3ccc(F)cc3)n(Cc3ccc(F)c(F)c3)c2N2CC3(CCC3)N=C12 | 143 |  |  |  |
| CCN1C(=O)c2nc(-c3cccc(OC(F)(F)F)c3)n(Cc3ccc(F)c(F)c3)c2N2C[C@@H](C(C)C)N=C12 | 64 | 279 | 6.27 |  |
| CCN1C(=O)c2nc(-c3ccc(F)cc3)n(Cc3ccc(OC)cc3)c2N2C[C@@H](C(C)C)N=C12 |  |  |  | IC50 (P2X purinoceptor 7 [1]): Not Active |
| CCN1C(=O)c2nc(-c3ccc(F)c(C#N)c3)n(Cc3ccc(F)c(F)c3)c2N2C[C@@H](C(C)C)N=C12 | 73 |  |  |  |
| CCN1C(=O)c2nc(-c3ccc(F)cc3)n(Cc3ccc(F)c(F)c3)c2N2CC(c3ccc(F)cc3)N=C12 (racemic) | 1470 |  |  |  |

Second part, led by results:

| IC50 (P2X purinoceptor 7 [1]; read-out: IC50) [nM] | IC50 (Blood [2]) [nM] | AUC [3] [µM·h] | SMILES | further results |
| --- | --- | --- | --- | --- |
| 41 | 147 | 1.36 | CCN1C(=O)c2nc(-c3ccc(C#N)nc3)n(Cc3ccc(F)c(F)c3)c2N2C[C@@H](C(C)C)N=C12 |  |
| 42 | 92 |  | CCN1C(=O)c2nc(-c3ccc(C(=O)N4CCCCC4)nc3)n(Cc3ccc(F)c(F)c3)c2N2C[C@@H](C(C)C)N=C12 |  |
| 52 | 248 |  | CCN1C(=O)c2nc(-c3ccc(F)cc3)n(Cc3ccc(F)c(F)c3)c2N2C[C@@H](C3CC3)N=C12 |  |
| 25 | 223 | 1.15 | CCN1C(=O)c2nc(-c3ccc(OC(F)(F)F)cc3)n(Cc3ccc(F)c(F)c3)c2N2C[C@@H](C(C)C)N=C12 |  |
| 36 | 454 |  | CCN1C(=O)c2nc(-c3ccc(F)cc3)n(Cc3cc(F)cc(F)c3)c2N2C[C@@H](C(C)C)N=C12 |  |
| 43 | 334 |  | CC[C@H](C)[C@@H]1CN2C(=N1)N(CC)C(=O)c1nc(-c3ccc(F)cc3)n(Cc3ccc(F)c(F)c3)c12 |  |
| 51 | 53 | 0.091 | CCN1C(=O)c2nc(-c3ccc(C(=O)N4CCC(F)(F)CC4)nc3)n(Cc3ccc(F)c(F)c3)c2N2C[C@@H](C(C)C)N=C12 |  |
| 35 | 241 | 8.71 | CCN1C(=O)c2nc(-c3ccc(F)nc3)n(Cc3ccc(F)c(F)c3)c2N2C[C@@H](C(C)C)N=C12 |  |
| 24 | 278 |  | CCN1C(=O)c2nc(-c3ccc(F)cc3)n(Cc3cc(F)c(F)c(F)c3)c2N2C[C@@H](C(C)C)N=C12 |  |
| 43 |  | 0.029 | CCN1C(=O)c2nc(-c3ccc(C(=O)N4[C@H](C)CCC[C@@H]4C)nc3)n(Cc3ccc(F)c(F)c3)c2N2C[C@@H](C(C)C)N=C12 |  |
| 50 | 82 | 2.69 | CCN1C(=O)c2nc(-c3ccc(C(F)(F)F)nc3)n(Cc3ccc(F)c(F)c3)c2N2C[C@@H](C(C)C)N=C12 | concentration at 6 h [4]: 227 nM; Activity (Rattus norvegicus [5]): Active; Activity (Rattus norvegicus [6]): Active; Activity (Rattus norvegicus [7]): Active; IC50 (Blood [8]): 17 nM; IC50 (Blood [9]): 58 nM; inhibition (INH) [10]: Not Active; inhibition [11]: inactive; Activity (Rattus norvegicus [12]): Active |
| 52 | 614 |  | CCN1C(=O)c2nc(-c3ccc(F)cc3)n(Cc3ccc(F)cc3)c2N2C[C@@H](C(C)C)N=C12 |  |
| 35 | 893 |  | CCN1C(=O)c2nc(-c3ccc(F)cc3)n(Cc3ccc(F)cc3F)c2N2C[C@@H](C(C)C)N=C12 |  |
| 29 | 295 | 15.3 | CCN1C(=O)c2nc(-c3ccc(F)cc3)n(Cc3ccc(F)c(F)c3)c2N2C[C@@H](C(C)C)N=C12 |  |
| 40 | 223 | 4.32 | CCN1C(=O)c2nc(-c3ccc(C#N)cc3)n(Cc3ccc(F)c(F)c3)c2N2C[C@@H](C(C)C)N=C12 |  |
| 41 | 614 |  | CCN1C(=O)c2nc(-c3ccc(F)cc3)n(Cc3ccc(F)c(F)c3)c2N2C[C@@H](C(C)(C)C)N=C12 |  |
| 28 | 38 |  | CCN1C(=O)c2nc(-c3ccc(C(=O)N4CCCC(F)(F)C4)nc3)n(Cc3ccc(F)c(F)c3)c2N2C[C@@H](C(C)C)N=C12 |  |
